This note sets out measurements from patent publication US20080260695A1, “Composition for prevention and/or treatment of cancer” (MICROBIO COMPANY LTD., priority 2007, published 2008).

This assay relates to colorectal cancer cell (HT-29). The experiment in a line: MTT assay, relative survival rate of colorectal cancer cell line. Format: cell-based. The conditions noted are these: HT-29, 24 hours, control 100%. As for the experimental part: The six components (fermented soy extract (Microbio Biotechnology®), oligomeric proanthocyanidin, epigallocatiechin gallate, spirulina, curcumin, and Antrodia camphorata) of Example 1 were classified to seven groups; the content of each group is listed in Table 2. Each group was respectively diluted 300×, 600×, 1200×, and 2400× with McCoy's 5a medium, and then colorectal cancer cell (HT-29, 80000 cell/well) line was treated with the diluted group A to group G. After 24 hours, the relative survival rates of the colorectal cancer cell line were detected by MTT assay. In a control group, the relative survival rate was 100%.
On the technique in general: Tetrazolium assays rely on reduction of a dye to a coloured formazan, in cell work by metabolically active cells.

The mark [1] stands for this setting: 300 × dilution in McCoy's 5a medium.
Setting [2] is: 600 × dilution in McCoy's 5a medium.
Where [3] appears, read: 1200 × dilution in McCoy's 5a medium.
Where [4] appears, read: 2400 × dilution in McCoy's 5a medium.

As for `COc1cc(/C=C/C(=O)CC(=O)/C=C/c2ccc(O)c(OC)c2)ccc1O` [Group C, curcumin], the “Relatively survival rate (%)” value is recorded as 18% under setting [1], 31% under setting [2], 45% under setting [3] and 71% under setting [4].

In the case of epigallocatiechin gallate [Group B], the “Relatively survival rate (%)” value is 23% under setting [1], 50% under setting [2], 66% under setting [3] and 81% under setting [4].
